Laboratory results as given in ChEMBL document CHEMBL1201862, “PubChem BioAssay data set” (2004).
The source made the active and inactive calls.

Legend:
[1] = inhibitors of intracellular T. cruzi replication, confirmation, NIH3T3 host cells, beta-gal luminescence (AID 2044); format: functional, cell-based;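 further: intracellular parasites grown in NIH/3T3 mouse fibroblasts as host cells; luminescent beta-galactosidase reporter signal from transgenic T. cruzi replicating inside host cells; inhibitors lower the luminescence signal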
[2] = HEp-2 cell cytotoxicity, dose response, cytotoxicity control for RSV inhibitor project, HTS (AID 2410); format: functional; conditions: human respiratory syncytial virus
[3] = cytotoxicity toward NIH3T3 fibroblasts, dose response, counter-screen, cell-based, ATP luminescence, mouse fibroblasts (AID 2010); format: functional;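 further: cells exposed to compound for about 90 hours before reading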
[4] = target: T1, V-type proton ATPase subunit c' (Saccharomyces cerevisiae S288c, UniProt P32842); assay: Dose Response with BCECF Assay for V-ATPase inhibitors that increase vacuolar pH, Powder Set 1.; format: functional; conditions: read-out: EC50_MICROM
[5] = target: T1, V-type proton ATPase subunit c'; assay: Dose Response of Small Molecules that Regulate V-ATPase Proton Transport in Yeast using pHLuorin, Powder Set1.; format: functional; conditions: read-out: EC50_MICROM
[6] = NIH-3T3 fibroblast cytotoxicity, dose response, cytotoxicity control, cell-based, fluorescence, Alamar Blue, secondary assay (AID 2327); format: functional;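 further: NIH-3T3 mouse fibroblasts cultured with fluconazole at 8 µg/mL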
[7] = C. albicans growth with fluconazole, confirmation, fluorescence, retest (AID 2467); format: functional, cell-based
[8] = target: T2, High affinity choline transporter 1 (Homo sapiens, UniProt Q9GZV3); assay: CHT activators, dose response, cell-based, 10-point CRC, membrane potential dye (AID 602376); format: functional
T2 sequence (Q9GZV3 whole entry): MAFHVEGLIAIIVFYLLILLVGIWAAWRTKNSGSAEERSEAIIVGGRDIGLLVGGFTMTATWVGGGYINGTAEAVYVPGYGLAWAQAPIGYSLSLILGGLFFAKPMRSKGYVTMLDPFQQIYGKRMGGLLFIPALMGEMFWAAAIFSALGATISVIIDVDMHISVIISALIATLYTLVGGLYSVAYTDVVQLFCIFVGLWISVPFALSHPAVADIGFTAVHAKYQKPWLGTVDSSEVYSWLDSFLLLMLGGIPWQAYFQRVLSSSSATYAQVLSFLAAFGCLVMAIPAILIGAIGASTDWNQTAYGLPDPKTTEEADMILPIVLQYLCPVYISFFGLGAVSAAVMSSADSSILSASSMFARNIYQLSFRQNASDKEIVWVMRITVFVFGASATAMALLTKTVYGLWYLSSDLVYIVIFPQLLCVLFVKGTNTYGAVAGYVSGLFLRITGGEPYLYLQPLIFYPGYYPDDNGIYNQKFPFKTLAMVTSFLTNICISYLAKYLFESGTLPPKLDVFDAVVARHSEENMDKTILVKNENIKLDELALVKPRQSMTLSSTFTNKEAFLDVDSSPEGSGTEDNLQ

[9] = tested on: INS1; assay: beta cell apoptosis inhibitors, cytokine rescue, dose response, luminescence, retest (AID 449756); format: functional, cell-based; conditions: Rattus norvegicus;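 further: cell death triggered by IL-1 beta plus TNF-alpha plus IFN-gamma mixture; protective hits raise ATP signal compared with cytokine alone wells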
[10] = tested on: CHO-K1; assay: (§1) Counterscreen for antagonists of the orexin 1 receptor (OX1R; HCRTR1): Homogeneous time resolved fluorescence (HTRF)-based cell-based dose response assay to identify antagonists of the parental CHO-K1 cell line. [Related pubchem assays (depositor defined):AID434989, AID435008, AID463079, AID485270, AID492963, AID492964, AID492965, AID493232, AID504699, AID504701]; format: functional; conditions: Cricetulus griseus
[11] = target: T3, Orexin receptor type 2 (Homo sapiens, UniProt O43614); assay: Counterscreen assay for antagonists of the orexin 1 receptor (OX1R; HCRTR1): Homogeneous Time Resolved Fluorescence (HTRF)-based cell-based dose response assay for antagonists of the orexin 2 receptor (OX2R; HCRTR2), run by assay provider.; format: functional
[12] = target: T4, Orexin/Hypocretin receptor type 1 (Homo sapiens, UniProt O43613); assay: (§2) Fluorescence-based cell-based high throughput dose response assay for antagonists of the orexin 1 receptor (OX1R; HCRTR1). [Related pubchem assays (depositor defined):AID434989, AID435008, AID463079, AID485270, AID492963, AID492964, AID492965, AID493232, AID504717, AID504718]; format: functional
[13] = as §1, with “Fluorescence-based” for “Homogeneous time resolved fluorescence (HTRF)-based”, “cell-based high throughput” for “cell-based”, “CHO” for “CHO-K1”; format: functional
[14] = target: T5, Corticotropin-releasing factor receptor 2/Corticotropin-releasing factor-binding protein (Homo sapiens, UniProt P24387+Q13324); assay: activators of CRF receptor 2 with binding protein – uHTS hits, confirmation (AID 602473); format: functional; conditions: read-out: EC50_Mean
T5 sequence (Q13324 whole entry): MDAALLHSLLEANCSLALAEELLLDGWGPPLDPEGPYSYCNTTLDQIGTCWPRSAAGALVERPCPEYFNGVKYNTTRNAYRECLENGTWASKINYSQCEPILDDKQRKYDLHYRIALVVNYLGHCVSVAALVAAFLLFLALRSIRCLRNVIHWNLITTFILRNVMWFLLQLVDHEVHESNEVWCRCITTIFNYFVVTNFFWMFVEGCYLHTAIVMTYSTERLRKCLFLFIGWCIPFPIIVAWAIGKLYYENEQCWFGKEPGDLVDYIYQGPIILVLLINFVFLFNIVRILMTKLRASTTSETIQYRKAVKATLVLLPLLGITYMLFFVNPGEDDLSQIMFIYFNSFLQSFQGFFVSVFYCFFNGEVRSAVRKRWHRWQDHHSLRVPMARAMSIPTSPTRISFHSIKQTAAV
T5 sequence (P24387 whole entry): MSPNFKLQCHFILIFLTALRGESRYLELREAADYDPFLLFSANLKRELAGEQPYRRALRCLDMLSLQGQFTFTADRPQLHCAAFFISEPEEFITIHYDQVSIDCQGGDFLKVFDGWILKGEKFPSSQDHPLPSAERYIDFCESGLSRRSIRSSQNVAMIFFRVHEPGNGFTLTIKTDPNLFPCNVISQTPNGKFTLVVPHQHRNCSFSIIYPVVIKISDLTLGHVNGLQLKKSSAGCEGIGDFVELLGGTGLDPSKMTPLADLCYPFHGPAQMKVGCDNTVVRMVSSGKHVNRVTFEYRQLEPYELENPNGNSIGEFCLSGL

[15] = target: T4, Orexin/Hypocretin receptor type 1; assay: as §2, with “Homogeneous Time Resolved Fluorescence (HTRF)-based” for “Fluorescence-based”; format: functional
[16] = target: T3, Orexin receptor type 2; assay: Counterscreen assay for antagonists of the orexin 1 receptor (OX1R; HCRTR1): Fluorescence-based cell-based dose response assay for antagonists of the orexin 2 receptor (OX2R; HCRTR2), run by assay provider.; format: functional
[17] = Vero cell cytotoxicity, cytotoxicity control for M. tuberculosis inhibitor project, purified and synthesized samples, set 8 (AID 602431); format: functional; conditions: Mycobacterium tuberculosis
[18] = HepG2 cell cytotoxicity, cytotoxicity control, set 6 (AID 602432); format: functional; conditions: Mycobacterium tuberculosis
[19] = THP-1 cell cytotoxicity, cytotoxicity control, set 6 (AID 602433); format: functional; conditions: Mycobacterium tuberculosis
[20] = target: Protein disulfide-isomerase (Homo sapiens, UniProt P07237); assay: PDI inhibitors, insulin aggregation turbidity, dose response, biochemical, absorbance, cherry-picked samples (AID 602350); format: functional
Protein disulfide-isomerase, sequence (P07237 whole entry): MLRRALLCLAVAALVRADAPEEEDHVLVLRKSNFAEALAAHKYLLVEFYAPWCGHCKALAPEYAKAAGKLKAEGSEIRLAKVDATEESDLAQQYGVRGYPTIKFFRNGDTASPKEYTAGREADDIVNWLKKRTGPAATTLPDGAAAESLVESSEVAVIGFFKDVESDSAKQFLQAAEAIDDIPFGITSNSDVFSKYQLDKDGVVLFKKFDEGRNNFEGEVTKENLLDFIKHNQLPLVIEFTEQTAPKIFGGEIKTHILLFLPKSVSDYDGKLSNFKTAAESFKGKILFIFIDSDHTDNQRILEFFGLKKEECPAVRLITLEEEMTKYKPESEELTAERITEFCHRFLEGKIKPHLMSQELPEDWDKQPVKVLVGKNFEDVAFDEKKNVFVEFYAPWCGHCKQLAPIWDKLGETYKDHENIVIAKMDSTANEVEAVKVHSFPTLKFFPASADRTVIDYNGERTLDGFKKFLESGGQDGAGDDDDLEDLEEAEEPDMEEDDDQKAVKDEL

T4 sequence (O43613 whole entry): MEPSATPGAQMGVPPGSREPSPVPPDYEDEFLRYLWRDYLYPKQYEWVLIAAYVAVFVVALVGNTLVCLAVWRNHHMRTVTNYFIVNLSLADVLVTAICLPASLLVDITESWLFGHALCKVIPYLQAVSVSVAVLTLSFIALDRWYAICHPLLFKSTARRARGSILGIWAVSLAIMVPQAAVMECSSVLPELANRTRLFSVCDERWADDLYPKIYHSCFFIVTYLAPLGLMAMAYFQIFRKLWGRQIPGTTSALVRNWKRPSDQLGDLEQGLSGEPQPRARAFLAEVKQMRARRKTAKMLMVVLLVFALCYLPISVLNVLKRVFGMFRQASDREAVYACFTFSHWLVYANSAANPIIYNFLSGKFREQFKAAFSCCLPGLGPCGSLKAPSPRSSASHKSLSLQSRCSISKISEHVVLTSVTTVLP
T3 sequence (O43614 whole entry): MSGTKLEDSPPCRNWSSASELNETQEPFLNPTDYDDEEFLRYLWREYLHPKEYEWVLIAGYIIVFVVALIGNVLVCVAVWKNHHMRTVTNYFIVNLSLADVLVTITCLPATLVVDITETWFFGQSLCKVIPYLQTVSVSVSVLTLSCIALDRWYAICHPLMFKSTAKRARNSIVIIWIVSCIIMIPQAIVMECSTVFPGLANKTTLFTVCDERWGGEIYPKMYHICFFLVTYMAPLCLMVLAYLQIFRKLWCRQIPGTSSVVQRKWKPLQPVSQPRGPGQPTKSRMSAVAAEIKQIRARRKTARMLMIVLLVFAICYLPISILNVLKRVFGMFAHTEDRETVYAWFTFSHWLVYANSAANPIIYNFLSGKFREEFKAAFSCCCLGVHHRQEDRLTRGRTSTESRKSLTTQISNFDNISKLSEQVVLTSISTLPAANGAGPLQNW
T1 sequence (P32842 whole entry): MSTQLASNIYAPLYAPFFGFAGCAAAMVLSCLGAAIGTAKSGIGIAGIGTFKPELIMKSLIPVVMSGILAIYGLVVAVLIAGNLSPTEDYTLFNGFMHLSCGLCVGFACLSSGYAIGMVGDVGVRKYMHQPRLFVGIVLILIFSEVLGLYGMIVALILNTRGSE

Structure (SMILES): O=C(c1ccc([N+](=O)[O-])o1)N1CCN(c2nc3c(Cl)cccc3s2)CC1
- EC50 [1]: 0.254 µM (active)
- CC50 [2]: > 50 µM (active)
- EC50 [3]: 20.6 µM (active)
- EC50 [4]: 0.86 µM (active)
- EC50 [5]: 3.53 µM (active)

Structure (SMILES): COc1ccc(C)cc1Nc1n[n+](-c2ccccc2)c(-c2ccc(OC)c(OC)c2OC)s1
- EC50 [1]: 0.215 µM (active)
- EC50 [6]: > 160 µM (inactive)
- EC50 [7]: 2.71 µM (active)
- EC50 [8]: 12.1 µM (active)
- EC50 [3]: > 30 µM (not active)
- AC50 [9]: 11.2 µM (active)

Structure (SMILES): Cc1cc(-c2ccc(N3CCOCC3)cc2)nc2ccccc12
- IC50 [10]: > 66.2 µM (inactive)
- IC50 [11]: 19.3 µM (inactive)
- IC50 [12]: 5.3 µM (active)
- IC50 [13]: > 49.8 µM (inactive)
- EC50 [14]: > 53 µM (inactive)
- IC50 [15]: 2.37 µM (active)
- IC50 [16]: > 88.8 µM (inactive)

Structure (SMILES): O=C(NCc1ccc(C(=O)N2CCC(c3ccccc3)CC2)cc1)Nc1ccc(Cl)cc1
- CC50 [17]: 40.1 µM (active)
- CC50 [18]: 35 µM (active)
- CC50 [19]: 24.7 µM (active)

Structure (SMILES): Cc1c(O)ccc2c(CN3CCN(CCO)CC3)cc(=O)oc12
- AC50 [20]: 8.66 µM (active)
